Test results taken from US10828299B2 (Gilead Sciences, Inc., priority 2013, dated 2020).

Test system: human hepatocytes
Experiment: Human Hepatocyte Stability Assay
Type: in vitro ADME
Conditions: comparison table with known compounds; head prints (units)
Description: The human […] stability of the compounds as predicted hepatocyte clearance in L/hr/kg was assessed. Compounds to be tested were diluted to 200 μM (4 μl of 10 mM DMSO stock into 196 μl ACN:H2O (50:50). Propranolol was used as a positive control, and buffer only without hepatocytes as 0% control. These were further diluted 4 μl with 891 μl KHB buffer (InVitroGRO catalog number Z99074) to provide 2× dosing solution. To each well of 24 well plate, 250 μl of the 2× dosing solution was added to each well with 250 μl of hepatocytes cells (1×10^6 viable cells/ml per well) or KHB for control samples to achieve a final compound concentration of 1 μM during incubation. The final solvent concentration was 0.01% DMSO and 0.25% ACN. The culture plate was placed on a rocker and incubated at 37° C., 5% CO2. Samples were collected at time 0, 1, 3, and 6 hours. The loss of parent compound was determined using LC-MS methods against a standard curve.

SMILES | Hheps CL
COc1ccc(Nc2nc(-c3cccc(N)c3)cn3ccnc23)cc1OC [6-(3-aminophenyl)-N-(3,4-dimethoxyphenyl)imidazo[1,2-a]pyrazin-8-amine, reference compound] | 0.24 L/h/kg
Cc1ncc(-c2cn3ccnc3c(Nc3ccc(N4CCN(C5COC5)CC4)cc3)n2)nc1N [Ex.-1, 6-(6-amino-5-methylpyrazin-2-yl)-N-(4-(4-(oxetan-3-yl)piperazin-1-yl)phenyl)imidazo[1,2-a]pyrazin-8-amine] | 0.12 L/h/kg
Cc1ncc(-c2cn3ccnc3c(Nc3ccc(N4CCN(C5COC5)CC4)c(OCCO)c3)n2)nc1N [Ex.-7, 2-(5-((6-(6-amino-5-methylpyrazin-2-yl)imidazo[1,2-a]pyrazin-8-yl)amino)-2-(4-(oxetan-3-yl)piperazin-1-yl)phenoxy)ethanol] | 0.05 L/h/kg
Cc1ncc(-c2cn3ccnc3c(Nc3ccc(N4CCOCC4)cc3)n2)cc1N [6-(5-amino-6-methylpyridin-3-yl)-N-(4-morpholinophenyl)imidazo[1,2-a]pyrazin-8-amine, reference compound] | 0.80 L/h/kg
Nc1cncc(-c2cn3ccnc3c(Nc3ccc(N4CCN(CC(CO)CO)CC4)cc3)n2)n1 [Ex.-6, 2-((4-(4-((6-(6-aminopyrazin-2-yl)imidazo[1,2-a]pyrazin-8-yl)amino)phenyl)piperazin-1-yl)methyl)propane-1,3-diol] | 0.08 L/h/kg
COc1ccc(Nc2nc(-c3ccc(N)nc3)cn3ccnc23)cc1OC [6-(6-aminopyridin-3-yl)-N-(3,4-dimethoxyphenyl)imidazo[1,2-a]pyrazin-8-amine, reference compound] | 0.90 L/h/kg
Nc1cncc(-c2cn3ccnc3c(Nc3ccc(N4CCN(C5COC5)CC4)c(OCCO)c3)n2)n1 [Ex.-5, 2-(5-((6-(6-aminopyrazin-2-yl)imidazo[1,2-a]pyrazin-8-yl)amino)-2-(4-(oxetan-3-yl)piperazin-1-yl)phenoxy)ethanol] | 0.07 L/h/kg
Cc1c(-c2cncc(N)n2)nc(Nc2ccc(N3CCN(C4COC4)CC3)cc2)c2nccn12 [Ex.-4, 6-(6-aminopyrazin-2-yl)-5-methyl-N-(4-(4-(oxetan-3-yl)piperazin-1-yl)phenyl)imidazo[1,2-a]pyrazin-8-amine] | 0.08 L/h/kg
Nc1cncc(-c2cn3ccnc3c(Nc3ccc(N4CCOCC4)cc3)n2)c1 [6-(5-aminopyridin-3-yl)-N-(4-morpholinophenyl)imidazo[1,2-a]pyrazin-8-amine, reference compound] | 0.68 L/h/kg
Nc1cncc(-c2cn3ccnc3c(Nc3ccc(N4CCN(C5COC5)CC4)cc3)n2)n1 [Ex.-2, 6-(6-aminopyrazin-2-yl)-N-(4-(4-(oxetan-3-yl)piperazin-1-yl)phenyl)imidazo[1,2-a]pyrazin-8-amine] | 0.055 L/h/kg
Nc1cncc(-c2cn3ccnc3c(Nc3ccc(N4CCO[C@@H](CO)C4)cc3)n2)n1 [Ex.-3, (R)-(4-(4-((6-(6-aminopyrazin-2-yl)imidazo[1,2-a]pyrazin-8-yl)amino)phenyl)morpholin-2-yl)methanol] | 0.09 L/h/kg
